US20230002439A1, “CRYSTALLINE FORMS OF VAMOROLONE” (ReveraGen BioPharma, Inc., priority 2021, published 2023)

Assays:
[1] = DSC thermal treatment and hot-stage pXRD (Form II vs. Form I); type: physicochemical
Description: The melting of vamorolone was performed in a DSC apparatus at a heating rate of 10° C./min. The DSC furnace was programmed to cool at 10° C./min down to −40° C. A second heating cycle at a heating rate of 10° C./min was performed.
The solid samples were examined using an X-ray diffractometer (Bruker D8 advance). The system is equipped with highly-parallel x-ray beams (Göbel Mirror) and a LynxEye detector. The samples were scanned from 3 to 40° 20 at a step size of 0.02° 20 and a time per step of 19.70 seconds. The tube voltage and current were 45 kV and 40 mA, respectively. The sample was transferred from the sample container onto a zero background XRD-holder and gently ground.
DSC analyses were conducted on a TA Instruments Q200. The calibration standard was indium. A sample of 2.0 mg in weight was placed into a TA DSC pan, and weight was accurately recorded. Crimped pans were used for analysis, and the samples were heated under nitrogen (50 mL/min) at a rate of 10° C./min, up to a final temperature of 260° C.
However, the pXRD pattern obtained after the sample was cooled down to room temperature is similar to the initial material. […] It is estimated from DSC and hot-stage pXRD data that the transition temperature could well be above 100° C. […]

glucocorticoid receptor = target: T1, glucocorticoid receptor (Homo sapiens, UniProt P04150); conditions: pre-clinical data, background statement; cited from earlier work
T1 sequence (P04150 1-777): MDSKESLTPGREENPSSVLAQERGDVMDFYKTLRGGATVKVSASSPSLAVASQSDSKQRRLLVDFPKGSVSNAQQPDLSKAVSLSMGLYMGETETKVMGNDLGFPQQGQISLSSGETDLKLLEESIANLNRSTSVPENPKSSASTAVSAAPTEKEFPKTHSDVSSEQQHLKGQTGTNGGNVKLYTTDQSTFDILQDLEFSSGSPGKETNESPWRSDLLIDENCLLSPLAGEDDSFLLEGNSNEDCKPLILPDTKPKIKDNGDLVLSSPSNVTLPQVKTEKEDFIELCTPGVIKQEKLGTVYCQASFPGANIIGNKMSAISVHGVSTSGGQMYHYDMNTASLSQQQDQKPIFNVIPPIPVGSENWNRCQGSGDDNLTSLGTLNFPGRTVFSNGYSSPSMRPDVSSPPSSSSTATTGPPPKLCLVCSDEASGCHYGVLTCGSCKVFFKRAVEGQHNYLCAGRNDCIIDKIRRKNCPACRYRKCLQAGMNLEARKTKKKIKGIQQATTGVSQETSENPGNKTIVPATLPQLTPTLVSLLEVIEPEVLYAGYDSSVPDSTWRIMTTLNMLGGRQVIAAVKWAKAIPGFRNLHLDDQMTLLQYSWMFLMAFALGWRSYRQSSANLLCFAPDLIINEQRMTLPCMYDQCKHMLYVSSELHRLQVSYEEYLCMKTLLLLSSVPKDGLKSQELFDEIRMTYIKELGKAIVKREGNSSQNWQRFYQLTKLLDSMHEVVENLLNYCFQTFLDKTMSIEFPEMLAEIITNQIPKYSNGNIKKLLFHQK

[2] = test system: mouse models of inflammatory states; conditions: multiple mouse models; including loss of growth stunting and loss of bone fragility; cited from earlier work
[3] = Thermogravimetric analysis (TGA); type: physicochemical
Description: TGA analyses were carried out on a TA Instruments TGA Q500. Approximately 2.0 mg of samples were placed in a tared platinum or aluminum pan, automatically weighed, and inserted into the TGA furnace. The samples were heated at 10° C./min to a final temperature of 300° C. The purge gas is nitrogen for balance at 40 mL/min and the sample at 60 mL/min, respectively.

For `C[C@@H]1C[C@H]2[C@@H]3CCC4=CC(=O)C=C[C@]4(C)C3=CC[C@]2(C)[C@@]1(O)C(=O)CO` [Form I, 17α,21-dihydroxy-16α-methylpregna-1,4,9(11)-triene-3,20-dione], the “relative stability of polymorphs” value ([1]; below the transition temperature) was “most stable form”.
For `C[C@@H]1C[C@H]2[C@@H]3CCC4=CC(=O)C=C[C@]4(C)C3=CC[C@]2(C)[C@@]1(O)C(=O)CO` [Form II, 17α,21-dihydroxy-16α-methylpregna-1,4,9(11)-triene-3,20-dione], the “relative stability of polymorphs” value ([1]; above the transition temperature) was “most stable”.
In the case of `C[C@@H]1C[C@H]2[C@@H]3CCC4=CC(=O)C=C[C@]4(C)C3=CC[C@]2(C)[C@@]1(O)C(=O)CO` [vamorolone, 17α,21-dihydroxy-16α-methylpregna-1,4,9(11)-triene-3,20-dione], the “binding to the glucocorticoid receptor” value (glucocorticoid receptor) is given as “binds potently” and the side effect profiles [2] is given as “dramatically improves side effect profiles”.
For `C[C@@H]1C[C@H]2[C@@H]3CCC4=CC(=O)C=C[C@]4(C)C3=CC[C@]2(C)[C@@]1(O)C(=O)CO` [Form VII, 17α,21-dihydroxy-16α-methylpregna-1,4,9(11)-triene-3,20-dione], the TGA weight loss ([3]; below about 225° C.) was “less than 1%”.
With `C[C@@H]1C[C@H]2[C@@H]3CCC4=CC(=O)C=C[C@]4(C)C3=CC[C@]2(C)[C@@]1(O)C(=O)CO` [Form IV, 17α,21-dihydroxy-16α-methylpregna-1,4,9(11)-triene-3,20-dione] the TGA weight loss ([3]; FIG. 7, temperature not stated) was less than 0.5% and the TGA weight loss ([3]; below about 200° C.) was “less than 0.5%”.
